Source: patent US6838237B2, “Antigenically reactive regions of the hepatitis a virus polyprotein” (The United States of America as represented by the …, priority 1996, dated 2005)

Assays:
anti-HAV-positive sera = experiment: EIA for anti-HAV: synthetic peptides adsorbed to wells, reacted with anti-HAV-positive acute sera; assay type: binding, human; conditions: for Reactivity with acute sera (reactive/tested): experiment 1: sera 1:100, anti-human IgG-HRP, cutoff P/N 3.0; for Reactivity with acute sera (percent of sera reactive): experiment 1: sera 1:100, cutoff P/N 3.0; for P/N for acute sera (mean) / P/N for acute sera (range, in parentheses): experiment 1, OD493 positive/negative ratio of reactive sera
Text: (§1) All anti-HAV-positive and anti-HAV-negative sera were randomly selected from a collection reposited at the Centers for Disease Control and Prevention, Atlanta, Ga. Serum specimens were collected from anti-HAV-positive patients with acute liver disease. Anti-HAV-negative serum specimens were collected from normal blood donors. All sera were initially tested by commercially available kit for the presence of anti-HAV activity (HAVAB and HAVAB-M, Abbott Laboratories, Abbott Park, Ill.)
(§2) Synthetic peptides (110 ml) at a concentration of 10 mg/ml in 0.1 M phosphate-buffered saline (PBS), pH 7.5, were adsorbed to microtiter wells (Immulon II, Dynatech Laboratories, Inc.) at room temperature for 12 h. Sera were diluted in PBS containing 0.1% Tween 20 and 10% normal goat serum (PBS-T) and 100 ml were added to each well, incubated for 60 min at 37E C, and washed with PBS containing Tween-20. […] Two different cutoffs were established for experiments 1 and 2. In experiment 1, the cutoff, expressed as a P/N ratio and equal to 3.0, was statistically established as the mean of negative controls plus at least 3.5 standard deviations (SD) above the mean, where P represents the optical density value at 493 nm (OD493) of anti-HAV-positive specimens and N represents the optical density value of negative controls. In experiment 2, a different cutoff was used to ensure statistical reliability and accurate interpretation of positive results. In this case, in addition to anti-HAV-negative sera, two irrelevant synthetic peptides were used as supplemental negative controls to determine the degree of nonspecific binding of anti-HAV sera to synthetic peptides. One cutoff, expressed as a P/N ratio and equal to 3.0, corresponded to the mean of negative serum controls plus at least 3.5 SD above the mean. A second cutoff was also expressed as a P/N ratio, where P represents the optical density value at 493 nm (OD493) for HAV peptides immunoreacting with anti-HAV-positive specimens and N represents the optical density value obtained with the irrelevant peptides. The second cutoff was equal 2.0 and corresponded to the mean of OD values obtained with the irrelevant peptides plus at least 3.5 SD above the mean. Synthetic peptides were considered immunoreactive with anti-HAV serum specimens only when both cutoffs were satisfied.

anti-HAV-negative sera = experiment: EIA for anti-HAV: synthetic peptides reacted with anti-HAV-negative sera; assay type: binding, human; conditions: experiment 1: sera 1:100, cutoff P/N 3.0
Text: as §1, §2

Sequence | percent of (IgM) anti-HAV-positive sera immunoreactive with peptide (anti-HAV-positive sera) | Reactivity with acute sera (reactive/tested) (anti-HAV-positive sera) | Reactivity with acute sera (percent of sera reactive) (anti-HAV-positive sera) | P/N for acute sera (mean) (anti-HAV-positive sera) | P/N for acute sera (range, in parentheses) (anti-HAV-positive sera) | Reactivity with negative sera (reactive/tested) (anti-HAV-negative sera) | immunoreactivity with anti-HAV-positive sera (in words) (anti-HAV-positive sera) | mean P/N ratio with anti-HAV-positive sera (anti-HAV-positive sera)
RCEPVVCYLYGKRGGGKSLT [YK-1348] | 29.2% | 14/48 | 29.2% | 6.96 | (3.66-15.48) | 2/51 |  | 
RGKGEGLPGMCGGALVSSNQ [YK-1390] |  | 10/41 | 24.4% | 6.62 | (3.52-13.98) | 1/27 |  | 
RIMKVEFTQCSMNVVSKTLF [YK-1394] |  | 13/41 | 31.7% | 6.98 | (4.05-12.93) | 3/27 |  | 
RMYWGPAISYFHLNPGFHTG [YK-1414] |  | 1/41 | 2.4% | 3.35 |  | 0/27 |  | 
SDPSQGGGIKITHFTTWTSI [YK-1235] |  | 11/46 | 23.9% | 4.2 | (3.0-4.95) | 0/48 |  | 
SDSVGQQIKVIPVDPYFFQM [YK-1243] |  | 1/41 | 2.4% | 3.47 |  | 0/46 | Very weakly reactive | 
SEKTIWSLIAWQRSNAEFEQ [YK-1434] |  | 11/41 | 26.8% | 7.47 | (3.85-16.03) | 1/27 |  | 
SHIECRKPYKELRLEVGKQR [YK-1315] |  | 26/48 | 54.2% | 13.71 | (3.1-75.61) | 1/51 |  | 
SKTRAIDACPLDYSILCRMY [YK-1412] |  | 10/41 | 24.4% | 6.04 | (3.4-15.15) | 2/27 |  | 
SLIAWQRSNAEFEQNLENAQ [YK-1435] |  | 6/41 | 14.6% | 8.96 | (5.16-13.71) | 1/27 |  | 
SQGISDDDNDSAVAEFFQSF [YK-1368] |  | 26/41 | 63.4% | 9.58 | (4.27-19.82) | 1/27 |  | 
SVTEQSEFYFPRAPLNSNAM [YK-1308] |  | 1/48 | 2.1% | 3.32 |  | 0/51 |  | 
TKPVASDYWDGYSGQLVCII [YK-1352] |  | 8/48 | 16.7% | 4.45 | (3.38-5.81) | 0/51 |  | 
TPVGLAVDTPWVEKESALSI [YK-1290] |  | 6/48 | 12.5% | 4.48 | (3.0-6.44) | 1/51 |  | 
TTVSTEQNVPDPQVGITTMK [YK-1265] |  | 9/41 | 22.0% | 6.7 | (3.23-9.57) | 0/46 |  | 
VAKLVTQEMFQNIDKKIESQ [YK-1393] | 58.5% | 24/41 | 58.5% | 10.15 | (4.64-16.36) | 1/27 | very broad and strong antigenic reactivity | 10.15
VASHVRVNVYLSAINLECFA [YK-1261] |  | 16/41 | 39.0% | 5.27 | (3.72-7.9) | 1/46 | broadly and strongly immunoreactive | 
VDDPRSEEDKRFESHIECRK [YK-1314] |  | 26/48 | 54.2% | 14.68 | (3.53-89.96) | 1/51 | broad and strong antigenic reactivity | 
VIQQLNQDEHSHIIGLLRVM [YK-1334] |  | 5/48 | 10.4% | 4.27 | (3.16-5.27) | 2/51 | marginally immunoreactive | 
VKEAIDRRLHFKVEVKPASF [YK-1361] |  | 5/41 | 12.2% | 4.12 | (3.21-6.28) | 0/46 |  | 
VKPASFFKNPHNDMLNVNLA [YK-1362] |  | 6/41 | 14.6% | 7.82 | (3.4-18.05) | 0/41 |  | 
VLPPPRKMKGLFSQAKISLF [YK-1318] |  | 15/48 | 31.3% | 5.94 | (3.4-8.68) | 0/51 |  | 
VMTVEIRKQNMTEFMELWSQ [YK-1367] | 22.0% | 9/41 | 22.0% | 7.82 | (4.18-16.26) | 1/41 |  | 
VSGCPMRLNMASLEEKGRHF [YK-1356] |  | 8/48 | 16.7% | 5.49 | (3.36-10.96) | 0/51 |  | 
WQRSNAEFEQNLENAQWFAF [YK-1436] |  | 4/41 | 9.8% | 4.49 | (3.35-5.89) | 1/27 |  | 
